Source: ChEMBL document CHEMBL4507268 (2021)

Tests used:
Settings in all cases: Compound concentration 1.0 uM
[1] = target: Activated CDC42 kinase 1 (Homo sapiens) (UniProt Q07912)
[2] = target: Bone morphogenetic protein receptor type-1B (Homo sapiens) (UniProt O00238)
[3] = target: CDK3/cyclin E (Homo sapiens) (UniProt P24864+O96020+Q00526)
[4] = target: CDK4/Cyclin D3 (Homo sapiens) (UniProt P11802+P30281)
[5] = target: Casein kinase I isoform delta (Homo sapiens) (UniProt P48730)
[6] = target: Receptor tyrosine-protein kinase erbB-2 (Homo sapiens) (UniProt P04626)
[7] = target: T1, Rhodopsin kinase GRK1 (Homo sapiens) (UniProt Q15835)
T1 sequence (whole entry): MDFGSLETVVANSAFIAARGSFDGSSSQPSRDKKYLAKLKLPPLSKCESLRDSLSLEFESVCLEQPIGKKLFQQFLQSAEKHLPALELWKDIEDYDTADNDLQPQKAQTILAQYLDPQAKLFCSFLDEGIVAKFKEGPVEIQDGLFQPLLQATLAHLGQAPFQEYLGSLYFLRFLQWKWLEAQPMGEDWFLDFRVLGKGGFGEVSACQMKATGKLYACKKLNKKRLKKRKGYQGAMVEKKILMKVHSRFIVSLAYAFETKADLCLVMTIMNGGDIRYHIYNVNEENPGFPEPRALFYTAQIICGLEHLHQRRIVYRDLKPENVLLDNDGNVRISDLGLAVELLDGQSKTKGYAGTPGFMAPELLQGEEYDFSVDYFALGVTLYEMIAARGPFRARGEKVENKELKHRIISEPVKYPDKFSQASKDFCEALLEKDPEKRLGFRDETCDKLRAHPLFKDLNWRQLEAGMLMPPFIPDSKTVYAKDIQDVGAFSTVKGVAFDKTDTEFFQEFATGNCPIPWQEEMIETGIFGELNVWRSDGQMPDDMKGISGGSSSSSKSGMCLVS

[8] = target: Eukaryotic translation initiation factor 2-alpha kinase 1 (Homo sapiens) (UniProt Q9BQI3)
[9] = target: T2, Inhibitor of nuclear factor kappa-B kinase subunit beta (Homo sapiens) (UniProt O14920)
T2 sequence (whole entry): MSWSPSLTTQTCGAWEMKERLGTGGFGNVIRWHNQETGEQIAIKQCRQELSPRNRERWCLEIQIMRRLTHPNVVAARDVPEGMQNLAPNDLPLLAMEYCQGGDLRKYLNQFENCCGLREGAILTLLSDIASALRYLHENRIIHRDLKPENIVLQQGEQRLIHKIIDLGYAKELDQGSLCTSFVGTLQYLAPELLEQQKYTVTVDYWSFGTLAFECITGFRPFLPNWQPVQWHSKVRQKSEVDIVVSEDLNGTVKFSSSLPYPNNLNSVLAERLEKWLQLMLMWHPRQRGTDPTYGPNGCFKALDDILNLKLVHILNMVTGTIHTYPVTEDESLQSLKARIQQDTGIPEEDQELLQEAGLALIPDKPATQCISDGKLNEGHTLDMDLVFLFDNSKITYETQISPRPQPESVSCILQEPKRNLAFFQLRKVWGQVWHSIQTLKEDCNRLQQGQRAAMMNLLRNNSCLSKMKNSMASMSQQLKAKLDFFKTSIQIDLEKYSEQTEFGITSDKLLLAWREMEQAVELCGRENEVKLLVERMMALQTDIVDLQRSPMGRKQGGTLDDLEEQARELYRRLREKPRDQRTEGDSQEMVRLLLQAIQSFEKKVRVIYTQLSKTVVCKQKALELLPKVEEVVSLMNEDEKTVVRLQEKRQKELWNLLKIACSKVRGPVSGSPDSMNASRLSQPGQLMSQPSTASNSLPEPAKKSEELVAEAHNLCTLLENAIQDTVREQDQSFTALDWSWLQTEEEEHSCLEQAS

[10] = target: LIM domain kinase 1 (Homo sapiens) (UniProt P53667)
[11] = target: LIM domain kinase 2 (Homo sapiens) (UniProt P53671)
[12] = target: Mitogen-activated protein kinase 1 (Homo sapiens) (UniProt P28482)
[13] = target: Mitogen-activated protein kinase kinase kinase kinase 4 (Homo sapiens) (UniProt O95819)
[14] = target: Serine/threonine-protein kinase 38-like (Homo sapiens) (UniProt Q9Y2H1)
[15] = target: PAS domain-containing serine/threonine-protein kinase (Homo sapiens) (UniProt Q96RG2)
[16] = target: Platelet-derived growth factor receptor beta (Homo sapiens) (UniProt P09619)
[17] = target: [Pyruvate dehydrogenase (acetyl-transferring)] kinase isozyme 1, mitochondrial (Homo sapiens) (UniProt Q15118)
[18] = target: RAC-beta serine/threonine-protein kinase (Homo sapiens) (UniProt P31751)
[19] = target: T3, Serine/threonine-protein kinase Sgk1 (Homo sapiens) (UniProt O00141)
T3 sequence (whole entry): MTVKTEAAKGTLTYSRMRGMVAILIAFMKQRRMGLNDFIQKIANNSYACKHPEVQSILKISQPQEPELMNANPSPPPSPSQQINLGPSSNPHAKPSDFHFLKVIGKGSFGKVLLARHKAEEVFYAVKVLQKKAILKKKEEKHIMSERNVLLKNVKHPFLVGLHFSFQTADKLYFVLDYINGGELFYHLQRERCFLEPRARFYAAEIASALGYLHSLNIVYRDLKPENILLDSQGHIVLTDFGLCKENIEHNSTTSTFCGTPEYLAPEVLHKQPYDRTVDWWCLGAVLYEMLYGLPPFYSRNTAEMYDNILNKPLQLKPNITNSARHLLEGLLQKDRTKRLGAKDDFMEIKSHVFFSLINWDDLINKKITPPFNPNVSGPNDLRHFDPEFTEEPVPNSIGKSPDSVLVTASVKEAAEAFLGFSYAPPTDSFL

[20] = target: Serine/threonine-protein kinase 33 (Homo sapiens) (UniProt Q9BYT3)
[21] = target: Tribbles homolog 2 (Homo sapiens) (UniProt Q92519)

Measured: % residual kinase activity

Sequence of CDK3/cyclin E (Homo sapiens) (O96020 whole entry, looked up): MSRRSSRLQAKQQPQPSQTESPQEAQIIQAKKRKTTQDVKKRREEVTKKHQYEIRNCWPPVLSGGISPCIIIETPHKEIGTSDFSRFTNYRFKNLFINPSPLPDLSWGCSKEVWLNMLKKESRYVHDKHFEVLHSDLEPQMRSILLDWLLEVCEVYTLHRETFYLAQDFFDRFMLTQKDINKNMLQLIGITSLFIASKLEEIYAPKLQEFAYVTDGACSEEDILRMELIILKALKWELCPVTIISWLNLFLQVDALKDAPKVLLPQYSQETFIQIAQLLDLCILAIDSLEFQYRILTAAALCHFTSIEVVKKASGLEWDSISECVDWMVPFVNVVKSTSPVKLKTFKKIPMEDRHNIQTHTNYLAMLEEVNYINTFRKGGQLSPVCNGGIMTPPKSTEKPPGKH
Sequence of CDK3/cyclin E (Homo sapiens) (P24864 whole entry, looked up): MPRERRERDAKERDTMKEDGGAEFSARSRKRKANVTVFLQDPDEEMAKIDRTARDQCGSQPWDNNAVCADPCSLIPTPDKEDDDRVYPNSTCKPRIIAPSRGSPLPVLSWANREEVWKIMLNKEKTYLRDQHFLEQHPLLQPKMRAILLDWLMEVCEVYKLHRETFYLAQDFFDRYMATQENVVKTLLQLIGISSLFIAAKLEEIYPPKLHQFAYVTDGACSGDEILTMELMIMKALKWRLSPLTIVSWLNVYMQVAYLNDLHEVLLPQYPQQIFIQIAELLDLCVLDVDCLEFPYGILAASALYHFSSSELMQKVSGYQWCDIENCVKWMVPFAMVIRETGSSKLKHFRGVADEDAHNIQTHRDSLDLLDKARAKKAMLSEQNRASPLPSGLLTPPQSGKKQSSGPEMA
Sequence of CDK3/cyclin E (Homo sapiens) (Q00526 whole entry, looked up): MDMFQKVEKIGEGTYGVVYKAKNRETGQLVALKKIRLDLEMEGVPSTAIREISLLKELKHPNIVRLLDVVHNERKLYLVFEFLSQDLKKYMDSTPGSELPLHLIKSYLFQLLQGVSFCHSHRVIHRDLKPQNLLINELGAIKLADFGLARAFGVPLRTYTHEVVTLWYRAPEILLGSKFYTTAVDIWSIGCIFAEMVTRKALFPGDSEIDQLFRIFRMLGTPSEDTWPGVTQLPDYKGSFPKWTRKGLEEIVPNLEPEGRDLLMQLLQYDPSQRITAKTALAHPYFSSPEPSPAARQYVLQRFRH
Sequence of LIM domain kinase 1 (Homo sapiens) (P53667 whole entry, looked up, the tested form may be a part): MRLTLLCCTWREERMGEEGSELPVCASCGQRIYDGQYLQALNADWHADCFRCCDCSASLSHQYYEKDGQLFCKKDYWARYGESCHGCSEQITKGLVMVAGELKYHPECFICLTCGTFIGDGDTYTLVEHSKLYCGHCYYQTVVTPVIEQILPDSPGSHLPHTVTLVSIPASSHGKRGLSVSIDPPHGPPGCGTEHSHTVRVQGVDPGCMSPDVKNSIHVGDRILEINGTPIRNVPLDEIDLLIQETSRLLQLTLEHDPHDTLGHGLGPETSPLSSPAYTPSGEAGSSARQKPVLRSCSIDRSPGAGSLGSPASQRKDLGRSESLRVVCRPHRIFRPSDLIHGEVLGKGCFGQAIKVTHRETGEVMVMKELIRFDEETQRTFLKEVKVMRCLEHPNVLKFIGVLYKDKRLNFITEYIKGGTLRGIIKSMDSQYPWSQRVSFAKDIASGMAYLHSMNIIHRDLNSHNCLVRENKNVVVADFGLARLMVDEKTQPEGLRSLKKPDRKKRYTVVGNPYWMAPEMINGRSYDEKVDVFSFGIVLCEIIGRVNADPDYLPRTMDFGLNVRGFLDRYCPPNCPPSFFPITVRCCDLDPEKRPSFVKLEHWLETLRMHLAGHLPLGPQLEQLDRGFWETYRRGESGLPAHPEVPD
Sequence of Mitogen-activated protein kinase 1 (Homo sapiens) (P28482 whole entry): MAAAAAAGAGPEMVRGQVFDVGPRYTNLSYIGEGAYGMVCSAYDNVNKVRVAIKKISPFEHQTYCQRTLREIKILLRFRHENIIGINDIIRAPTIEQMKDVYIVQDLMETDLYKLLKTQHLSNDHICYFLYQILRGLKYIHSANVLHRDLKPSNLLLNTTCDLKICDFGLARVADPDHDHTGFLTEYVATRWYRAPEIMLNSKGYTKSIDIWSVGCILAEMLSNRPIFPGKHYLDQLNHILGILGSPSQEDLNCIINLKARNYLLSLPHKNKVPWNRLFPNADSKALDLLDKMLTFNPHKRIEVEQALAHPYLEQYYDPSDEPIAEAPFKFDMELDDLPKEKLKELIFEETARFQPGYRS
Sequence of Bone morphogenetic protein receptor type-1B (Homo sapiens) (O00238 whole entry): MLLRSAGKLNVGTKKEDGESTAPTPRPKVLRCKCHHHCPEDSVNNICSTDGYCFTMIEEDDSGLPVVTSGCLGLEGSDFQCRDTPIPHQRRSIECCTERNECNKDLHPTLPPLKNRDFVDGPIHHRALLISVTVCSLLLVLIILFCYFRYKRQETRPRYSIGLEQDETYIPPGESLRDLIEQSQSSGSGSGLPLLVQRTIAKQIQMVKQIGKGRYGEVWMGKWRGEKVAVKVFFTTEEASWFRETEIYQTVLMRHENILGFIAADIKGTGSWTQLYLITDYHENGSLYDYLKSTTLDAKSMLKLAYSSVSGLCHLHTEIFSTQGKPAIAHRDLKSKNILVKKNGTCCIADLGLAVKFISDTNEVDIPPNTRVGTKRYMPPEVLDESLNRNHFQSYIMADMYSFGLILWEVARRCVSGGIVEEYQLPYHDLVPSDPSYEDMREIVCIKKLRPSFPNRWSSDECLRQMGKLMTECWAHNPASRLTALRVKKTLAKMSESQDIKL
Sequence of Serine/threonine-protein kinase 33 (Homo sapiens) (Q9BYT3 whole entry, looked up): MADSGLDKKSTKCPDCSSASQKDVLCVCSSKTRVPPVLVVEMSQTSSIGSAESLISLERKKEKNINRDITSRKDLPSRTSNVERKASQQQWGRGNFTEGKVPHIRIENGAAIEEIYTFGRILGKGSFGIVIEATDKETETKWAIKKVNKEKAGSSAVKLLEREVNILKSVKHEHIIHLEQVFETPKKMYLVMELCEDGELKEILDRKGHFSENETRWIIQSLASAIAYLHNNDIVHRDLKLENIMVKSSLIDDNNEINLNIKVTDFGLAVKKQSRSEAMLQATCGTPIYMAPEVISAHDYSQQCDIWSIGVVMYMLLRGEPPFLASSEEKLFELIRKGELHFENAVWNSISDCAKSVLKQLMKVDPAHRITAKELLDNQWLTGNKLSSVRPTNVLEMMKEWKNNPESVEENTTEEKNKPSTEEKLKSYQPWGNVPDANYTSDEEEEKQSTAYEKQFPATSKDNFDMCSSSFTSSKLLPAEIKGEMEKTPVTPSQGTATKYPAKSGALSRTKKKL
Sequence of Activated CDC42 kinase 1 (Homo sapiens) (Q07912 whole entry, looked up): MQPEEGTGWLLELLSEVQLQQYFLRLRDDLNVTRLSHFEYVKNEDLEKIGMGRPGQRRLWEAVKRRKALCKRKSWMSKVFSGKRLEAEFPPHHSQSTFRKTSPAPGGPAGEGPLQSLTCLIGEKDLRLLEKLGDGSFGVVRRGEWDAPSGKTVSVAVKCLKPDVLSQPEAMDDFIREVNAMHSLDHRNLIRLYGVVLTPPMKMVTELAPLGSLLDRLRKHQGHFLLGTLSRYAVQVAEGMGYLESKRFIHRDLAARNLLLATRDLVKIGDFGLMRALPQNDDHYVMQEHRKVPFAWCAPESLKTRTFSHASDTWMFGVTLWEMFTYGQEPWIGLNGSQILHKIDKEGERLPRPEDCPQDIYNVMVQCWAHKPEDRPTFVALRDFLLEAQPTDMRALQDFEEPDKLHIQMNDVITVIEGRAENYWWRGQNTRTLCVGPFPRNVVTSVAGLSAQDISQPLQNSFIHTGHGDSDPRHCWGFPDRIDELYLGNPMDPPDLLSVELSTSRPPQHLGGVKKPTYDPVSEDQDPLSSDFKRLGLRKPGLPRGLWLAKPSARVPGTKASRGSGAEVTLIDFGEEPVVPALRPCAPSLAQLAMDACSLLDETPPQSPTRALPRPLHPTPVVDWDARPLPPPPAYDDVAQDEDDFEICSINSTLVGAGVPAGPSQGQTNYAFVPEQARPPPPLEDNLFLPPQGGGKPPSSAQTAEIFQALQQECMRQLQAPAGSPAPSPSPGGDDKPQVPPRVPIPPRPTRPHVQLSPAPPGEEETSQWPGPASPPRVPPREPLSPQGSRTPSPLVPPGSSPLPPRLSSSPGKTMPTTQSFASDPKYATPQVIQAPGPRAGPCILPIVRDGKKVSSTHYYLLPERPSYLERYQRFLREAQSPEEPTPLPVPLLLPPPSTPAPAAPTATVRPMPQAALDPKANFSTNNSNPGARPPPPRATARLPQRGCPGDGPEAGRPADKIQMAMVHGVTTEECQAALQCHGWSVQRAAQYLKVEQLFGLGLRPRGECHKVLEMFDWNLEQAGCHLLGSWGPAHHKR
Sequence of Tribbles homolog 2 (Homo sapiens) (Q92519 whole entry): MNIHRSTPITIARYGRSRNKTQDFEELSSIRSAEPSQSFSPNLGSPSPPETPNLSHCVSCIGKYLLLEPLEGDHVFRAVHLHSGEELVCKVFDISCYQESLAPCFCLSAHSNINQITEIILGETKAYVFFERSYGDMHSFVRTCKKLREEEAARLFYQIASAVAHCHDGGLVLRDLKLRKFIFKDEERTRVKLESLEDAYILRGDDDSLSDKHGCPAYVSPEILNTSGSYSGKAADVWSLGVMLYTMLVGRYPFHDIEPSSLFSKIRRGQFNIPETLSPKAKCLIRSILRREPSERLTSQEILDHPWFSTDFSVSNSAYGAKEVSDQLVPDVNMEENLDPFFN
Sequence of Serine/threonine-protein kinase 38-like (Homo sapiens) (Q9Y2H1 2-464 limits assumed): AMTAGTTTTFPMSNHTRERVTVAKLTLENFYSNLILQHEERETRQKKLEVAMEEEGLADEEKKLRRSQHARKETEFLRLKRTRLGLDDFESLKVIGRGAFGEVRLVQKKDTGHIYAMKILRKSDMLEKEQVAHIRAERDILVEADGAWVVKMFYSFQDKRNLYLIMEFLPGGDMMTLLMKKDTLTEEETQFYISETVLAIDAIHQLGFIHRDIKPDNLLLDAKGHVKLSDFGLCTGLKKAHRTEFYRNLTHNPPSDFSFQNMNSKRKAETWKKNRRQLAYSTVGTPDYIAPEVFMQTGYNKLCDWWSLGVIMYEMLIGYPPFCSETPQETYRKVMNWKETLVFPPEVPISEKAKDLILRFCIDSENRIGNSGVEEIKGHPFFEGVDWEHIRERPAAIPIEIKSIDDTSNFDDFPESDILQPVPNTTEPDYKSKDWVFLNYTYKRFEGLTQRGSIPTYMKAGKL

CN1CCN(c2cnc3c(C4CCN(C(=O)c5ccc(OC(F)(F)F)cc5N)CC4)ncnc3c2)CC1 [BAY-885]
inactive: [1] 101% | [2] 102% | [3] 106% | [4] 106% | [5] 116% | [6] 96% | [7] 117% | [8] 104% | [9] 106% | [10] 93% | [11] 104% | [12] 107% | [13] 99% | [14] 100% | [15] 107% | [16] 107% | [17] 89% | [18] 109% | [19] 113% | [20] 103% | [21] 109%
